Laboratory results: US7893110B2 (Givaudan S.A., priority 2005, dated 2011)

What was measured:
mouth [1] = assay: Application in toothpaste: cooling sensation felt by panelist; type: in vivo; conditions: toothgel with 2.5 g of 2% sol. in PG per 100 g, plus peppermint oil; 1 g brushed on teeth, mouth rinsed with water
Excerpt: [table] The chemicals are mixed in the toothgel, and 1 g of the toothgel is put on a toothbrush and a panelist's teeth are brushed. The mouth is rinsed with water and the water is spit out.

mouth [2] = assay: Application in mouthwash: cooling sensation; type: in vivo; conditions: mouthwash with 50 mL of 1% sol. in alcohol per liter, plus peppermint oil; 30 mL put in the mouth, swished, gargled and spit out
Method: [table] All the ingredients are mixed. 30 mL of obtained solution is put in the mouth, swished around, gargled and spit out.

SMILES | cooling sensation in the mouth (mouth [1]) | cooling sensation in the mouth (mouth [2])
COc1ccc(NC(=O)C23CC4CC(CC(C4)C2)C3)cc1 [Example 2F, Adamantane-1-carboxylic acid (4-methoxy-phenyl)-amide] | cooling sensation | 
CC(C)(C)C1CCCCC1C(=O)Nc1ccc(CO)cc1 (centres unmarked) [Example 2L, 2-tert-Butyl-cyclohexanecarboxylic acid (4-hydroxymethyl-phenyl)-amide] |  | strong cooling sensation
